Experiments:
[1] = test system: VEGF-A; assay: RT-PCR for VEGF-A at outflow vein, simvastatin; type: in vivo, mice
Procedure: (§1) Animals were housed at 22° C. temperature, 41% relative humidity, and 12-/12-hour light/dark cycles. Animals were allowed access to water and food ad libitum. […] Sixty-eight male C57BL/6 mice (Jackson Laboratories, Bar Harbor, Me.) weighing 25-30 grams were used for the present study (FIG. 18). Chronic kidney disease was created by surgical removal of the right kidney accompanied by ligation of the arterial blood supply to the upper pole of the left kidney as described elsewhere (Misra et al., J. Vasc. Interv. Radiol., 21:1255-1261 (2010); see, also, FIG. 18A). Three weeks after nephrectomy, the animals were started on simvastatin (40 mg/kg administered i.p. three times per week) or PBS (equal amount of volume used for simvastatin i.p. controls). Simvastatin was prepared as described elsewhere (Wilson et al., Arterioscler Thromb. Vasc. Biol., 21:122-128 (2001)). A week later, an AVF was created by connecting the right carotid artery to the ipsilateral jugular vein (FIG. 18B; see, also, Misra et al., J. Vasc. Interv. Radiol., 21:1255-1261 (2010) and Yang et al., J. Vasc. Interv. Radiol., 20:946-950 (2009)). Animals were sacrificed at day 7, day 14, and day 28 following AVF placement for real time polymerase chain reaction (RT-PCR) and histomorphometric analyses (FIG. 18C). Serum BUN and creatinine were measured by removing blood from the tail vein at baseline (before nephrectomy), at AVF creation, and at the time of sacrifice. […] These animals were started on simvastatin (40 mg/kg i.p.) or PBS (equal amount of volume i.p.) every other day one week before AVF placement and then sacrificed four weeks after fistula placement for histomorphometric analysis.
(§2) The tissue was stored in RNA stabilizing reagent (Qiagen, Gaithersburg, Md.) as per the manufacturer's guidelines. To isolate the RNA, the specimens were homogenized, and total RNA was isolated using RNeasy mini kit (Qiagen) (Misra et al., J. Vasc. Interv. Radiol., 21:1255-1261 (2010); and Yang et al., J. Vasc. Interv. Radiol., 20:946-950 (2009)).
(§3) Expression for the gene of interest was determined using RT-PCR analysis as described elsewhere (Misra et al., J. Vasc. Interv. Radiol., 21:1255-1261 (2010)). Commercial PCR primers for the gene of interest were purchased from SA Biosciences (Frederick, Md.).

[2] = test system: MMP-9; assay: RT-PCR for MMP-9 at outflow vein, simvastatin; type: in vivo, mice
Procedure: as §1, §2, §3

[3] = test system: MMP-9; assay: RT-PCR for MMP-9 in kidneys, simvastatin; type: in vivo, mice
Procedure: as §1, §2, §3

[4] = test system: Ki-67; assay: Ki-67 staining of outflow vein, simvastatin; type: in vivo, mice; conditions: vs control
Procedure: Multiple serial four-micrometer sections were stained and analyzed. Cellular proliferation was determined by staining for Ki-67 on sections removed from the outflow vein for simvastatin treated vessels or control groups. Smooth muscle density (α-SMA) or proliferation index (Ki-67) was determined by staining on sections removed from the outflow vein by performing quantification at the different time points. Immunohistochemistry for Ki-67 and α-SMA was performed on paraffin-embedded sections from the outflow vein after transfection with either simvastatin or controls using the Vectastain Elite ABC system (Vector Laboratories, Burlingame, Calif., USA). The following antibodies were used: mouse monoclonal antibody Ki-67 (DAKO, Carpentaria, Calif.; 1:400) or rabbit polyclonal antibody to mouse for α-SMA (Abcam, Cambridge, Mass.; 1:400).
Morphometric analysis was performed as described elsewhere (Misra et al., Kidney Int., 68:2890-2900 (2005); and Misra et al., Am. J. Physiol. Heart Circ. Physiol., 294:H2219-2230 (2008)). Briefly, the outflow vein was sectioned into multiple contiguous 4-μm paraffin embedded sections. Typically, 2 to 3 sections per animal for each group (simvastatin and controls) and time point (day 14 and day 28) were photographed and then quantified using KS 400 (Carl Zeiss, Inc., Thornwood, N.Y.) semiquantitative program.

[5] = test system: α-SMA; assay: Western blot of α-SMA in NIH 3T3 cells, simvastatin; type: cell-based; conditions: 10 μM, 24 hours of hypoxia, vs control
Procedure: (§4) One hundred thousand NIH 3T3 cells were treated with simvastatin (1 μM, 5 μM, or 10 μM) or controls and made hypoxic for 24 hours as described elsewhere (Misra et al., J. Vasc. Interv. Radiol., 21:896-902 (2010)).
The differentiation of fibroblasts to myofibroblasts was assessed by performing Western blot analysis for α-SMA. The cultured cells were processed for Western analysis using rabbit polyclonal antibody as described elsewhere (Misra et al., J. Vasc. Interv. Radiol., 19:252-259 (2008)).

[6] = test system: NIH 3T3 cells; assay: Cell migration (matrigel invasion) assay in NIH 3T3 cells, simvastatin; type: cell-based
Procedure: as §4
NIH 3T3 cells were synchronized for 24 hours in serum free media. Next, one hundred thousand NIH 3T3 cells were treated with simvastatin or controls and seeded in 8-micron trans-wells that were pre-coated with low growth factor matrigel in a serum free media. The complete media was supplemented under the trans-well and incubated for 6 hours at 37° C. After 6 hours, trans-wells were washed with PBS and fixed with paraformaldehye (4% v/v). Finally, trans-wells were stained with bromophenol (0.1%) solution. The cells from upper side were removed with cotton tip applicators. The cells at bottom side were counted for analysis.

[7] = test system: NIH 3T3 cells; assay: Proliferation (thymidine incorporation) assay in NIH 3T3 cells, simvastatin; type: cell-based
Procedure: as §4
One hundred thousand NIH 3T3 cells were treated with simvastatin or controls and made hypoxic for 24 hours. Next, they were seeded in a 6-well plate and cultured for 24 hours in DMEM medium. After 20 hours, […] of (^3H) thymidine was added to each well. Four hours later, the cells were washed with chilled PBS, fixed with 100% cold methanol, and collected for measurement of trichloroacetic acid-precipitable for radioactivity. Experiments were repeated three times for each time point.

[8] = test system: caspase 3; assay: Caspase 3 activity in NIH 3T3 cells, simvastatin; type: cell-based; conditions: 24 hours hypoxia
Procedure: as §4
Apoptosis was assessed using an ELISA assay for caspase 3. Cellular protein was extracted from one hundred thousand cultured cells as described elsewhere (Misra et al., J. Vasc. Interv. Radiol., 21:896-902 (2010)). The enzymatic activity of caspase 3 was accessed by Caspase Glo assay (G811C, Promega, Madison, Wis.).

Question: How did the “mean gene expression of VEGF-A” value ([1]; day 7) turn out when `CCC(C)(C)C(=O)O[C@H]1C[C@@H](C)C=C2C=C[C@H](C)[C@H](CC[C@@H]3C[C@@H](O)CC(=O)O3)[C@H]21` [simvastatin] was run?
Answer: Its value is 0.58±0.06.

Question: And the “Average reduction of VEGF-A gene expression” value ([1]; day 7, vs control)?
Answer: The value was 44%.

Question: What about the “mean gene expression of VEGF-A” value ([1]; day 14) of the same compound?
Answer: The value was 0.51±0.1.

Question: What about the “Average reduction of VEGF-A gene expression” value ([1]; day 14, vs control) of the same compound?
Answer: Its value is 49%.

Question: And the “average gene expression of MMP-9” value ([2]; day 7)?
Answer: The value was 0.19±0.03.

Question: What about the “Average reduction of MMP-9 gene expression” value ([2]; day 7, vs control) of the same compound?
Answer: The value was 69%.

Question: And the “average gene expression of MMP-9” value ([2]; day 14)?
Answer: Its value is 0.37±0.02.

Question: What about the “Average reduction of MMP-9 gene expression” value ([2]; day 14, vs control) of the same compound?
Answer: The value was 41%.

Question: And the “average gene expression of MMP-9” value ([3]; day 7)?
Answer: The value was 0.42±0.13.

Question: And the “Average reduction of MMP-9 gene expression” value ([3]; day 7, vs control)?
Answer: Its value is 57%.

Question: What about the “average gene expression of MMP-9” value ([3]; day 28) of the same compound?
Answer: Its value is 0.64±0.09.

Question: What about the “Average reduction of MMP-9 gene expression” value ([3]; day 28, vs control) of the same compound?
Answer: Its value is 44%.

Question: And the “average reduction of Ki-67 density” value ([4]; day 14)?
Answer: The value was 66%.

Question: What about the “average reduction of Ki-67 density” value ([4]; day 28) of the same compound?
Answer: Its value is 76%.

Question: What about the “average reduction of Ki-67 density” value ([4]; day 28 normal) of the same compound?
Answer: Its value is 77%.

Question: What about the “Average reduction in α-SMA production (Western blot)” value [5] of the same compound?
Answer: The value was 56%.

Question: What about the “average reduction of migratory capacity” value ([6]; 5 μM, 24 hours hypoxia) of the same compound?
Answer: Its value is 47%.

Question: What about the “average reduction of migratory capacity” value ([6]; 5 μM, 24 hours normoxia) of the same compound?
Answer: The value was 32%.

Question: And the “average reduction of migratory capacity” value ([6]; 10 μM, 24 hours hypoxia)?
Answer: The value was 62%.

Question: And the “average reduction of migratory capacity” value ([6]; 10 μM, 24 hours normoxia)?
Answer: Its value is 50%.

Question: And the “average reduction in proliferative ability” value ([7]; 5 μM, 24 hours hypoxia)?
Answer: Its value is 83%.

Question: What about the “average reduction in proliferative ability” value ([7]; 5 μM, 24 hours normoxia) of the same compound?
Answer: The value was 75%.

Question: And the “average reduction in proliferative ability” value ([7]; 10 μM, 24 hours hypoxia)?
Answer: Its value is 92%.

Question: What about the “average reduction in proliferative ability” value ([7]; 10 μM, 24 hours normoxia) of the same compound?
Answer: The value was 94%.

Question: What about the “average increase in caspase 3 activity” value ([8]; 5 μM) of the same compound?
Answer: Its value is 281%.

Question: What about the “average increase in caspase 3 activity” value ([8]; 10 μM) of the same compound?
Answer: Its value is 1103%.

— patent US20140011822A1, “METHODS AND MATERIALS FOR REDUCING VENOUS STENOSIS FORMATION OF AN ARTERIOVENOUS FISTULA OR GRAFT” (priority 2011, published 2014)
